The target of one experiment is T1, DCN1-like protein 1 (Homo sapiens, UniProt Q96GG9). As to the kind of experiment: TR-FRET Assay (24 hour). The protocol: (§1) The DCN1 protein was biotinylated (EZ sulfo-NHS-LC-biotin; Thermofisher) for labeling with streptavidin terbium (Tb) cryptate in the reaction. The probe was changed to a non-covalent DCN1 inhibitor labeled with carboxyfluorescein (FAM; Zhou et al., Nat Commun. 2017; 8: 1150. Doi: 10.1038/s41467-017-01243-7). Buffer conditions were modified to enhance protein stability by exchanging Tween20 for TritonX and increasing NaCl to 200 mM. The compounds were screened against 5 nM DCN1 and 20 nM FAM-probe or 0.31 nM DCN1 and 900 nM total probe (100 nM FAM-labeled plus 800 nM unlabeled). The TR-FRET ratio between Tb-DCN1 and the FAM-labeled probe was measured in a 384-well opti-plate (Perkin Elmer) using a plate reader (BMG) at 24 hrs after treatment with compound (final DMSO concentration of 0.1%).
T1 sequence (Q96GG9 whole entry): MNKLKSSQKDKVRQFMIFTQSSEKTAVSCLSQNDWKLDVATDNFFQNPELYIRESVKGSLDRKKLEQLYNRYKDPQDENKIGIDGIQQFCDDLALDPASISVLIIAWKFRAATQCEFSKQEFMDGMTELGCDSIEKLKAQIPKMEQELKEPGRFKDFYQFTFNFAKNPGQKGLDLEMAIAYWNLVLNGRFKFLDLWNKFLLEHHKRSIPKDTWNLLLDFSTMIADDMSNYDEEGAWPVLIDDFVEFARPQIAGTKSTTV
Background: TR-FRET usually uses a lanthanide donor and a delayed reading to cut background.
For orientation: IC50 means the midpoint of a concentration-inhibition curve. A low value points to greater potency in that assay. Consider `CCN1C(=O)[C@H](NC(=O)c2cccc(C(F)(F)F)c2)[C@@H](c2cccc(NC(=O)/C=C/CN(C)C)c2)c2c(C)nn(-c3ccccc3)c21` (racemic) [US12435087, Compound I-38], for which the IC50 was below 200 nM.
In turn, `C=C(CN(C)C1COC1)C(=O)N(C)Cc1cccc([C@@H]2c3cnn(-c4ccccc4)c3N(CC)C(=O)[C@H]2NC(=O)c2ccn(C3CC3)n2)c1` [US12435087, Compound I-239] displayed an IC50 below 200 nM.
Consider `C=C(CN(C)C1COC1)C(=O)N(C)Cc1cccc([C@@H]2c3cnn(-c4ccccc4)c3N(CC)C(=O)[C@H]2NC(=O)c2nccc(C(F)(F)F)n2)c1` [US12435087, Compound I-254], for which the 50% inhibitory concentration (IC50) was below 200 nM.
The same measure, in the same setting: for `C=C(CN1CC2CC(C1)O2)C(=O)N(C)Cc1cccc([C@@H]2c3cnn(-c4ccccc4)c3N(CC)C(=O)[C@H]2NC(=O)c2ccn(C3CC3)n2)c1` [US12435087, Compound I-258] the value was below 200 nM.

The target in the next experiment is T1, DCN1-like protein 1. As to the kind of experiment: TR-FRET Assay (1 hour). The protocol:
as §1, with “1 hour” for “24 hrs”
Regarding `C=CS(=O)(=O)Nc1cccc([C@H]2c3c(C)nn(-c4ccccc4)c3N(CC)C(=O)[C@@H]2NC(=O)c2cccc(C(F)(F)F)c2)c1` (racemic) [US12435087, Compound I-5], the half-inhibitory concentration (IC50) was below 200 nM.
Same read-out and setting: for `C=C(CN1CCOCC1)C(=O)NCc1cccc([C@@H]2c3cnn(-c4ccccc4)c3N(CC)C(=O)[C@H]2NC(=O)c2ccn(C3CC3)n2)c1` [US12435087, Compound I-280] the value was below 200 nM; for `CCN1C(=O)[C@@H](NC(=O)c2nccc(C(F)(F)F)n2)[C@H](c2cccc(C(=O)N3C[C@H](F)C[C@H]3C#N)c2)c2cnn(-c3ccccc3)c21` [US12435087, Compound I-350], 1000 to 3000 nM; for `C=C(CN(C)C1COC1)C(=O)NCc1cccc([C@@H]2c3cnn(-c4ccccc4)c3N(CC)C(=O)[C@H]2NC(=O)c2ccn(C(F)(F)F)n2)c1` [US12435087, Compound I-378], below 200 nM.

Values taken from BindingDB's records for patent US12435087 (Cellarity, 2025).
